Results from patent US20060128729A1, “Novel bicyclic heterocyclic compounds, process for their preparation and compositions containing them” (priority 2004, published 2006).
Where a name gives a salt, the structure may show the parent alone.

Point of comparison: `CCCc1nn(C)c2c(Nc3ccc(O)c(Cl)c3)nc(-c3ccccc3)nc12.Cl`, melting point 180 °C. Against it:
- Cl.Fc1ccc(-c2nc(Nc3ccc(OC(F)(F)F)cc3)c3cnn(-c4ccccc4)c3n2)cc1 — higher, 220 to 222 °C
- Cc1nn(C)c2cc(-c3ccc(F)cc3)nc(-c3cccc(S(C)(=O)=O)c3)c12 [E 93, 6-(4-fluoro-phenyl)-4-(3-methanesulfonyl-phenyl)-1,3-dimethyl-1H-pyrazolo[4,3-c]pyridine] — higher, 186 to 188 °C
- CCCc1nn(C)c2c(Nc3ccc4c(c3)OCO4)nc(-c3cccs3)nc12 (as salt: hydrochloride) [E 52, benzo[1,3]dioxol-5-yl-(1-methyl-3-propyl-5-thiophen-2-yl-1H-pyrazolo[4,3-d]pyrimidin-7-yl)-amine hydrochloride] — higher, 246 to 250 °C
- Cc1nn(C)c2c(Nc3ccc(C(N)=O)cc3)nc(-c3ccc(F)cc3)nc12.Cl — higher, 272 to 274 °C
- Cc1nn(C)c2c(-c3ccccc3)nc(-c3ccc(F)cc3)nc12 [E 66, 5-(4-fluoro-phenyl)-1,3-dimethyl-7-phenyl-1H-pyrazolo[4,3-d]pyrimidine] — lower, 150 to 152 °C
- Cc1nn(C)c2cc(-c3ccc(F)cc3)nc(Nc3ccc(Cl)c(C(F)(F)F)c3)c12.Cl — higher, 223 to 225 °C
- CCCc1nn(C)c2c(C#Cc3ccccc3)nc(-c3ccc(F)cc3)nc12 [E 70, 5-(4-fluoro-phenyl)-1-methyl-7-phenylethynyl-3-propyl-1H-pyrazolo[4,3-d]pyrimidine] — lower, 156 to 158 °C
- CCCc1nn(C)c2c(-c3ccc(OC)c(F)c3)nc(-c3ccccc3)nc12 [E 61, 7-(3-fluoro-4-methoxy-phenyl)-1-methyl-5-phenyl-3-propyl-1H-pyrazolo[4,3-d]pyrimidine] — lower, 158 to 160 °C
- CCCc1nn(C)c2c(Nc3ccc(F)cc3)nc(-c3ccc(F)cc3)nc12.Cl — lower, 161 to 164 °C
- Cc1nc2cc(Nc3nc(-c4ccccc4)nc4c(C)nn(C)c34)ccc2o1.Cl — higher, 272 to 274 °C
- CCCc1nn(C)c2c(-c3ccc(O)c(C)c3)nc(-c3ccccc3)nc12 [E 57, 2-methyl-4-(1-methyl-5-phenyl-3-propyl-1H-pyrazolo[4,3-d]pyrimidin-7-yl)-phenol] — higher, 204 to 206 °C
- CCCc1nn(C)c2c(Oc3ccc(F)cc3)nc(-c3ccccc3)nc12 — lower, 126 to 128 °C
- Cc1nn(C)c2c(-c3ccc4c(c3)OCO4)nc(-c3ccccc3)nc12 [E 65, 7-benzo[1,3]dioxol-5-yl-1,3-dimethyl-5-phenyl-1H-pyrazolo[4,3-d]pyrimidine] — lower, 142 to 144 °C
- Cc1nn(C)c2cc(-c3ccc(F)cc3)nc(Nc3cccc(C(F)(F)F)c3)c12.Cl — higher, 220 to 222 °C
- CCCc1nn(C)c2c(-c3ccc(C)cc3)nc(-c3ccc(F)cc3)nc12 [E 63, 5-(4-fluoro-phenyl)-1-methyl-3-propyl-7-p-tolyl-1H-pyrazolo[4,3-d]pyrimidine] — lower, 148 to 150 °C
- Cc1nn(C)c2cc(-c3ccc(F)cc3)nc(-c3ccc(S(C)(=O)=O)cc3)c12 [E 98, 6-(4-fluoro-phenyl)-4-(4-methanesulfonyl-phenyl)-1,3-dimethyl-1H-pyrazolo[4,3-c]pyridine] — higher, 228 to 230 °C
- CC(=O)Nc1cc(Nc2nc(-c3ccc(F)cc3)nc3c(C)nn(C)c23)ccc1O.Cl — higher, 250 to 252 °C
- Cc1nn(C)c2c(F)nc(-c3ccccc3)nc12 [E 99, 7-fluoro-1,3-dimethyl-5-phenyl-1H-pyrazolo[4,3-d]pyrimidine] — lower, 110 to 112 °C
- Cc1nn(C)c2c(Nc3ccc(Cl)nc3)nc(-c3ccc(F)cc3)nc12.Cl — higher, 248 to 250 °C
- Cc1nn(C)c2c(-c3cccc(S(C)(=O)=O)c3)nc(-c3ccc(F)cc3)nc12 [E 68, 5-(4-fluoro-phenyl)-7-(3-methanesulfonyl-phenyl)-1,3-dimethyl-1H-pyrazolo[4,3-d]pyrimidine] — lower, 176 to 178 °C
- Cc1nn(C)c2c(-n3ccc4ccccc43)nc(-c3ccccc3)nc12 [E 90, 7-indol-1-yl-1,3-dimethyl-5-phenyl-1H-pyrazolo[4,3-d]pyrimidine] — lower, 141 to 143 °C
- Cc1nn(C)c2c(-c3cccc(S(C)(=O)=O)c3)nc(-c3ccccc3)nc12 [E 67, 7-(3-methanesulfonyl-phenyl)-1,3-dimethyl-5-phenyl-1H-pyrazolo[4,3-d]pyrimidine] — higher, 210 to 212 °C
- CCCc1nn(C)c2c(Nc3ccc(OC)c(Cl)c3)nc(-c3cccs3)nc12.Cl — higher, 258 to 260 °C
- CCCc1nn(C)c2c(Nc3ccc(OC)c(F)c3)nc(-c3ccccc3OCC)nc12.Cl — higher, 194 to 196 °C
- CCCc1nn(C)c2c(Nc3ccc(OC)c(OC)c3)nc(-c3ccc(F)cc3)nc12.Cl — not separable, 178 to 181 °C
- CCCc1nn(C)c2c(-c3ccc(OC)c(F)c3)nc(-c3ccc(F)cc3)nc12 [E 59, 7-(3-fluoro-4-methoxy-phenyl)-5-(4-fluoro-phenyl)-1-methyl-3-propyl-1H-pyrazolo[4,3-d]pyrimidine] — lower, 174 to 176 °C
- CCCc1nn(C)c2c(Nc3ccc4c(c3)OCO4)nc(-c3cccs3)nc12.Cl — higher, 246 to 250 °C
- CCCc1nn(C)c2c(Nc3ccc(O)c(F)c3)nc(-c3ccc(F)cc3)nc12.Cl — lower, 161 to 162 °C
- CCCc1nn(C)c2c(-c3ccc(O)c(C)c3)nc(-c3ccc(OC)c(OC)c3)nc12 [E 53, 4-[5-(3,4-dimethoxy-phenyl)-1-methyl-3-propyl-1H-pyrazolo[4,3-d]pyrimidin-7-yl]-2-methyl-phenol] — higher, 198 to 200 °C
- Cc1nn(C)c2c(Nc3ccc(O)c(Cl)c3)nc(-c3ccc(F)cc3)nc12.Cl — higher, 238 to 240 °C
- COc1cc(Nc2nc(-c3ccccc3)nc3c(C)nn(C)c23)ccc1Cl.Cl — higher, 222 to 224 °C
- Cc1nn(C)c2cc(-c3ccc(F)cc3)nc(Nc3ccc(Cl)nc3)c12.Cl — higher, 215 to 218 °C
- CCCc1nn(C)c2c(-c3ccc(OC)c(C)c3)nc(-c3ccc(F)cc3)nc12 [E 58, 5-(4-fluoro-phenyl)-7-(4-methoxy-3-methyl-phenyl)-1-methyl-3-propyl-1H-pyrazolo[4,3-d]pyrimidine] — lower, 136 to 138 °C
- Cc1nn(C)c2c(N(C)C)nc(-c3ccccc3)nc12 [E 102, (1,3-dimethyl-5-phenyl-1H-pyrazolo[4,3-d]pyrimidin-7-yl)-dimethyl-amine] — lower, 86 to 88 °C
- CCCc1nn(C)c2c(Nc3ccc(Cl)c(OC)c3)nc(-c3ccc(F)cc3)nc12.Cl — higher, 230 to 232 °C
- CCCc1nn(C)c2c(-n3ccc4cc(Cl)ccc43)nc(-c3ccc(F)cc3)nc12 [E 89] — lower, 146 to 148 °C
- CCCc1nn(C)c2c(-c3ccc(O)c(Cl)c3)nc(-c3ccc(F)cc3)nc12 [E 55, 2-chloro-4-[5-(4-fluoro-phenyl)-1-methyl-3-propyl-1H-pyrazolo[4,3-d]pyrimidin-7-yl]-phenol] — higher, 182 to 184 °C
- CCCc1nn(C)c2c(-c3ccccc3)nc(-c3ccc(F)cc3)nc12 [E 64, 5-(4-fluoro-phenyl)-1-methyl-7-phenyl-3-propyl-1H-pyrazolo[4,3-d]pyrimidine] — lower, 115 to 118 °C
- CCCc1nn(C)c2c(-c3ccc(O)c(C)c3)nc(-c3ccc(OC)c(O)c3)nc12 [E 54, 4-[5-(3-hydroxy,4-methoxy-phenyl)-1-methyl-3-propyl-1H-pyrazolo[4,3-d]pyrimidin-7-yl]-2-methyl-phenol] — not separable, 180 to 182 °C
- Cc1nn(C)c2c(Nc3cccc(F)c3)nc(-c3ccccc3)nc12.Cl — higher, 218 to 220 °C
- Cl.Fc1ccc(-c2nc(Nc3cccc(F)c3)c3cnn(-c4ccccc4)c3n2)cc1 — higher, 210 to 213 °C
- CCCc1nn(C)c2c(Nc3ccc(Cl)c(OC)c3)nc(-c3ccccc3)nc12.Cl — higher, 228 to 230 °C
- CCCc1nn(C)c2c(Nc3ccc(OC)c(F)c3)nc(C(F)(F)F)nc12.Cl — lower, 136 to 138 °C
- CCCc1nn(C)c2c(-n3ccc4ccccc43)nc(-c3ccc(F)cc3)nc12 [E 88, 5-(4-fluoro-phenyl)-7-indol-1-yl-1-methyl-3-propyl-1H-pyrazolo[4,3-d]pyrimidine] — lower, 114 to 116 °C
- CCCc1nn(C)c2c(Nc3ccc(O)c(Cl)c3)nc(-c3ccc(F)cc3)nc12.Cl — higher, 200 to 202 °C
- CCCc1nn(C)c2c(-c3ccc(SC)cc3)nc(-c3ccc(F)cc3)nc12 [E 62, 5-(4-fluoro-phenyl)-1-methyl-7-(4-methylsulfanyl-phenyl)-3-propyl-1H-pyrazolo[4,3-d]pyrimidine] — lower, 114 to 116 °C
- CCCc1nn(C)c2c(N3CCC(O)CC3)nc(-c3ccc(OC)c(OC)c3)nc12 [E 20, 1-[5-(3,4-dimethoxy-phenyl)-1-methyl-3-propyl-1H-pyrazolo[4,3-d]pyrimidin-7-yl]-piperidin-4-ol] — lower, 142 to 144 °C
- CCCc1nn(C)c2c(Nc3ccc(Cl)c(OC)c3)nc(-c3cccs3)nc12.Cl — higher, 200 to 204 °C
- CCCc1nn(C)c2c(-c3ccc(OC)c(C)c3)nc(-c3ccccc3)nc12 [E 60, 7-(4-methoxy-3-methyl-phenyl)-1-methyl-5-phenyl-3-propyl-1H-pyrazolo[4,3-d]pyrimidine] — lower, 158 to 160 °C
- Cc1nn(C)c2cc(-c3ccc(F)cc3)nc(-c3ccc(OC(F)(F)F)cc3)c12 [E 94, 6-(4-fluoro-phenyl)-1,3-dimethyl-4-(4-trifluoromethoxy-phenyl)-1H-pyrazolo[4,3-c]pyridine] — lower, 92 to 94 °C
- CCCc1nn(C)c2c(-c3ccc(S(C)(=O)=O)cc3)nc(-c3ccc(F)cc3)nc12 [E 69, 5-(4-fluoro-phenyl)-7-(4-methanesulfonyl-phenyl)-1-methyl-3-propyl-1H-pyrazolo[4,3-d]pyrimidine] — higher, 208 to 210 °C
- CNS(=O)(=O)c1ccc(Nc2nc(-c3ccc(F)cc3)cc3c2c(C)nn3C)cc1.Cl — higher, 293 to 295 °C
- Cc1nn(C)c2c(-c3ccc(OC(F)(F)F)cc3)nc(-c3ccc(F)cc3)nc12 [E 101, 5-(4-fluoro-phenyl)-1,3-dimethyl-7-(4-trifluoromethoxy-phenyl)-1H-pyrazolo[4,3-d]pyrimidine] — lower, 170 to 172 °C

With `Cc1nn(C)c2c(Nc3ccc(O)c(Cl)c3)nc(-c3cccs3)nc12.Cl` the melting point was greater than 240 °C.
`COc1cc(Nc2nc(-c3cccs3)nc3c(C)nn(C)c23)ccc1Cl.Cl` gave a melting point greater than 240 °C.
